Source: US4855430A, “Polycyclicamine with psychotropic activity” (American Home Products Corporation, priority 1987, dated 1989)
Where a name gives a salt, the structure may show the parent alone. Read-outs that look alike come from different tables or passages of the source.

How the values were obtained:
[1] = target: T1, 5-HT1A serotonin receptor (Rattus norvegicus, UniProt P19327); assay: ex vivo inhibition of 5-HT1A serotonin receptor binding assay (3H-8-OH-DPAT, hippocampal tissue); conditions: read-out: % Inhibition of 8-OH DPAT Binding at 1 μM
T1 construct: Hippocampal tissue is dissected and homogenized on ice; from tissue; host or cells: rat hippocampus (membrane homogenate)
T1 sequence (P19327 1-422): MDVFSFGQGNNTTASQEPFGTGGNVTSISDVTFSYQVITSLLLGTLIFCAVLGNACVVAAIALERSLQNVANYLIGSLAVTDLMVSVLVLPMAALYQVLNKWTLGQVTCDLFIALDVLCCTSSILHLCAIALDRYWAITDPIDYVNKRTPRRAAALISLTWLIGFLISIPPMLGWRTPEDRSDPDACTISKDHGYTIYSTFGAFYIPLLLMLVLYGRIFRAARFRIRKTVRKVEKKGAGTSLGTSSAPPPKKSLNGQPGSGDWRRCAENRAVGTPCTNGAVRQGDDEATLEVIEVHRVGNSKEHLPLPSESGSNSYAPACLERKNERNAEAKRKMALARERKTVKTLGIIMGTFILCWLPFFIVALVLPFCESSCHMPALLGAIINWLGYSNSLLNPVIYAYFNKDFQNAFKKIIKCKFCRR
Procedure: The assay is carried out as follows:
Several groups of rats (4-6 rats/group) are injected with test compound or the appropriate vehicle. Thirty minutes later, unless otherwise noted, rats are decapitated and their brains removed. Various brain regions are dissected and rapidly frozen and maintained at -70° C. until used.
The homogenate is then centrifuged at 20,000 rpm (RC5-B; 40,000 g) and the supernatant discarded. The pellet is resuspended in 40 vols of the same buffer and incubated at 37° C. for 10 minutes to aid in the removal of endogenous serotonin. The homogenate is then centrifuged (as above) and the supernatant discarded. The pellet is then resuspended in 100 vols of buffer B (50 mM Tris HCl, pH=7.7 containing 0.1% ascorbate, 10 μM pargyline and 4 mM CaCl2) and sonicated. An aliquot is taken for protein determination by the Lowry method and the remainder stored frozen at -70° C. until used.
The homogenate (50 μl; 0.4-0.6 mg protein/sample) is incubated with 100 μl (1.5-1.8 nM) ^3 H-8-hydroxy-2-(di-n-propylamino)tetraline in a final volume of 2 ml of buffer for 10 minutes at 37° C.
Specific binding obtained in vehicle-treated rats is compared to that obtained in animals receiving a single or various doses of test compound and expressed as percent of control.

[2] = target: limbic D-2 dopamine receptor (Rattus norvegicus, UniProt P61169); assay: inhibition of limbic D-2 dopamine receptor binding (3H-spiroperidol), in vitro; conditions: read-out: % Inhibition of H3-Spiroperidol Binding at 1 μM
limbic D-2 dopamine receptor, sequence (P61169 whole entry): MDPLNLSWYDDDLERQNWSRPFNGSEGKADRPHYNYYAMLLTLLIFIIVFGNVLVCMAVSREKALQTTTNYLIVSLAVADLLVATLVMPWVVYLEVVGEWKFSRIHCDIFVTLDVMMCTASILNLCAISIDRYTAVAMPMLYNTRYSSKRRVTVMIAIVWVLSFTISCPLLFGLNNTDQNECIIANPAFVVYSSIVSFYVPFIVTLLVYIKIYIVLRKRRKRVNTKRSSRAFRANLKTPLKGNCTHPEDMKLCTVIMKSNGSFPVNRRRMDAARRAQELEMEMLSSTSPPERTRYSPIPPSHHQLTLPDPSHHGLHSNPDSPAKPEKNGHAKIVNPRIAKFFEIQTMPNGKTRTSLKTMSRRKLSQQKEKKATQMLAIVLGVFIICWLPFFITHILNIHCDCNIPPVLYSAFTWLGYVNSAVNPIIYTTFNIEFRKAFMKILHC
Procedure: The compounds of the invention are also studied for their ability to inhibit limbic D-2 dopamine receptor binding. This in vitro assay measures the ability of the compounds tested to bind to the dopamine receptor sites.
The test is carried out as follows:
Several rats are decapitated and the brains are rapidly removed. Limbic brain tissue (nucleus accumbens, septal area, olfactory tubercle) is dissected and homogenized on ice in 9 volumes of buffer (50 mM Tris-HCl, 120 mM NaCl, 5 mM KCl, 1 mM CaCl2, 1 mM MgCl2, 0.1% L-ascorbic acid, 10 μM pargyline HCl, pH 7.1) using a Polytron homogenizer at setting 5 for three 15-sec bursts. The homogenate is then diluted 4-fold with buffer and centrifuged at 30,000×g for 20 minutes, and the supernatant is discarded. The pellet is resuspended in the same volume of buffer and recentrifuged as before, again discarding the supernatant. This pellet is then resuspended in the same volume of buffer used in the homogenization, and the protein content of this preparation is assayed by the Lowry method. The homogenate is stored frozen at -70° C. until use.
Thirty μl of the homogenate (0.2-0.3 mg protein/sample) are incubated with 0.3 mM ^3 H-spiroperidol (New England Nuclear) and various concentrations of test drug in a final volume of 1 ml of the above buffer for 10 minutes in a 37° C. water bath. At the end of the incubation, 3 ml of cold 50 mM Tris-HCl, pH 7.7, are added to each tube, and the contents are rapidly vacuum-filtered through Whatman GF/B glass-fiber filters. The filters are then rapidly washed 3 times with 3 ml of the same buffer, placed in scintillation vials, and shaken for 15 minutes with 10 ml of Hydrofluor (National Diagnostics) scintillation cocktail. The vials are then counted in a Packard 460 CD scintillation counter.
Specific binding is defined as total binding less binding in the presence of 1 μM (+)butaclamol. Binding in the presence of various concentrations of test drug is expressed as a percent of specific binding when no drug is present. […] Ki (inhibition constant) for the test drug is then calculated by the formula: [formula]

5-HT1A receptor = conditions: literature, in words; cited from earlier work
[3] = West German Patent Application No. 3,321,969A; cited from earlier work
[4] = 1 μM, 3H-8-OH-DPAT, rat hippocampal tissue

O=C(CCCN1CC2C3C=CC(CCC3)C2C1)c1ccc(F)cc1 (centres unmarked) [Example 3, 1-(4-Fluorophenyl)-4-(3,3a,4,5,6,7,8,8a-octahydro-4,8-ethenocyclohepta[c]pyrrol-2(1H)-yl)-1-butanone, hydrochloride, hydrate]
inhibition at 1 µM [1]: 61%
inhibition at 1 µM [2]: 100%

C1=CC2C3CCC3C1C1CN(CCc3ccc4ccccc4n3)CC21 (centres unmarked) [Example 4, 2,3,3a,4,4a,5,6,6a,7,7a-Decahydro-2-[2-(2-quinolinyl)ethyl]-4,7-etheno-2H-cyclobut[f]isoindole, dihydrochloride, hydrate]
inhibition at 1 µM [1, 4]: 97%
inhibition at 1 µM [2]: 17%

C1=CC2C3CCC3C1C1CN(CCc3ccccn3)CC21 (centres unmarked) [Example 6, 2,3,3a,4,4a,5,6,6a,7,7a-Decahydro-2-[2-(2-pyridinyl)ethyl]-4,7-etheno-1H-cyclobut[f]isoindole, dihydrochloride, 1/4 hydrate]
inhibition at 1 µM [1, 4]: 89%
inhibition at 1 µM [2]: 3%

C1=CC2C1C1C=CC2C2CN(CCc3ccc4ccccc4n3)CC12 (centres unmarked) [Example 7, 2,3,3a,4,4a,6a,6,7,7a-Octahydro-2-[2-(2-quinolinyl)ethyl]4,7-etheno-1H-cyclobut[f]isoindole, dihydrochloride, 11/4 hydrate]
inhibition at 1 µM [1, 4]: 46%

Clc1cccc(N2CCN(CCCN3CC4CCC(CC4)C3)CC2)c1 [Example 8, 3-[3-[4-(3-Chlorophenyl)-1-piperazinyl]propyl]-3-azabicyclo[3.2.2]nonane, dihydrochloride]
inhibition at 1 µM [1]: 82%
inhibition at 1 µM [2]: 11%

Clc1cccc(N2CCN(CCCN3CC4C5C=CC(C6CCC56)C4C3)CC2)c1 (centres unmarked) [Example 9, 2-[3-[4-(3-Chlorophenyl)-1-piperazinyl]propyl]-2,3,3a,4,4a,5,6,7,7a-decahydro-4,7-etheno-1H-cyclobut[f]isoindole, trihydrochloride, dihydrate]
inhibition at 1 µM [2]: 40%

O=C(CCCN1CC2C3C=CC(C4CC34)C2C1)c1ccc(F)cc1 (centres unmarked) [Example 10, 1-(4-Fluorophenyl)-4-(3,3a,4,4a,5,5a,6,6a-octahydro-4,6-ethenocycloprop[f]isoindole-2-(1H)-yl)-1-butanone, hydrochloride, sesquihydrate]
inhibition at 1 µM [2]: 93%

c1ccc2nc(CCN3CC4CCC(CC4)C3)ccc2c1 [Example 12, 3-[2-(2-Quinolinyl)ethyl[-3-azabicyclo[3.2.2]nonane, dihydrochloride, dihydrate]
inhibition at 1 µM [1]: 30%

COc1ccccc1N1CCN(CCCN2CC3CCC(CC3)C2)CC1 [Example 13, 3-[3-[4-(2-Methoxyphenyl)-1-piperazinyl]propyl]-3-azabicyclo[3.2.2]nonane, trihydrochloride, 3/4 hydrate]
inhibition at 1 µM [2]: 55%

O=C1c2ccccc2S(=O)(=O)N1CCCCN1CCN(c2ncccn2)CC1 [TVX Q 7821, 2-[4-[4-(2-pyrimidinyl)-1-piperazinyl]butyl]-1,2-benzisothiazol-3-(2H)one1,1-dioxide hydrochloride]
binding at the 5-HT1A site (5-HT1A receptor): demonstrate binding at the 5-HT1A site
antidepressant activity [3]: possess antidepressant activity

O=C1CC2(CCCC2)CC(=O)N1CCCCN1CCN(c2ncccn2)CC1 [buspirone, 8-[4-[4-(2-pyrimidinyl)-1-piperazinyl]butyl]-8-azaspiro[4.5]decane-7,9-dione]
binding at the 5-HT1A site (5-HT1A receptor): demonstrate binding at the 5-HT1A site

CCCC(C)C1(CC)C(=O)NC(=O)NC1=O (centres unmarked) [pentobarbital]
binding at the 5-HT1A site (5-HT1A receptor): do not act via the 5-HT1A receptor
